Source: the NIST ThermoML archive (doi:10.1021/je600583u)

Assay: xn = mol fraction of the nth substance listed
Conditions: Fluid (supercritical or subcritical phases), isochoric method

CC(F)F [1,1-difluoroethane] + O=C=O
Conditions	molar volume [m3/mol]
293.08 K, 3005 kPa, x2 = 0.873	0.000595
293.09 K, 577 kPa, x2 = 0.25	0.003751
293.09 K, 699 kPa, x2 = 0.389	0.00308
293.09 K, 930 kPa, x2 = 0.503	0.002291
293.09 K, 1290 kPa, x2 = 0.685	0.001629
293.09 K, 1572 kPa, x2 = 0.731	0.001321
293.1 K, 1257 kPa, x2 = 0.631	0.001641
298.07 K, 590 kPa, x2 = 0.25	0.003752
298.07 K, 715 kPa, x2 = 0.389	0.003081
298.07 K, 952 kPa, x2 = 0.503	0.002292
298.07 K, 1610 kPa, x2 = 0.731	0.001321
298.07 K, 3114 kPa, x2 = 0.873	0.000595
298.08 K, 1320 kPa, x2 = 0.685	0.00163
298.09 K, 1287 kPa, x2 = 0.631	0.001641
303.04 K, 3203 kPa, x2 = 0.873	0.000595
303.05 K, 602 kPa, x2 = 0.25	0.003753
303.05 K, 973 kPa, x2 = 0.503	0.002292
303.06 K, 589 kPa, x2 = 0.117	0.003796
303.06 K, 731 kPa, x2 = 0.389	0.003081
303.06 K, 1350 kPa, x2 = 0.685	0.00163
303.06 K, 1648 kPa, x2 = 0.731	0.001321
303.07 K, 1317 kPa, x2 = 0.631	0.001642
308.03 K, 602 kPa, x2 = 0.117	0.003797
308.03 K, 3292 kPa, x2 = 0.873	0.000595
308.04 K, 615 kPa, x2 = 0.25	0.003753
308.04 K, 746 kPa, x2 = 0.389	0.003082
308.04 K, 994 kPa, x2 = 0.503	0.002293
308.04 K, 1380 kPa, x2 = 0.685	0.00163
308.05 K, 1346 kPa, x2 = 0.631	0.001642
308.05 K, 1685 kPa, x2 = 0.731	0.001322
313.02 K, 615 kPa, x2 = 0.117	0.003798
313.02 K, 3380 kPa, x2 = 0.873	0.000595
313.03 K, 627 kPa, x2 = 0.25	0.003754
313.03 K, 761 kPa, x2 = 0.389	0.003083
313.03 K, 1015 kPa, x2 = 0.503	0.002293
313.03 K, 1409 kPa, x2 = 0.685	0.001631
313.03 K, 1722 kPa, x2 = 0.731	0.001322
313.04 K, 1375 kPa, x2 = 0.631	0.001642
318 K, 3467 kPa, x2 = 0.873	0.000596
318.01 K, 627 kPa, x2 = 0.117	0.003799
318.01 K, 776 kPa, x2 = 0.389	0.003084
318.01 K, 1035 kPa, x2 = 0.503	0.002294
318.01 K, 1438 kPa, x2 = 0.685	0.001631
318.02 K, 640 kPa, x2 = 0.25	0.003755
318.02 K, 1758 kPa, x2 = 0.731	0.001322
318.03 K, 1404 kPa, x2 = 0.631	0.001643
323 K, 640 kPa, x2 = 0.117	0.0038
323 K, 652 kPa, x2 = 0.25	0.003756
323 K, 791 kPa, x2 = 0.389	0.003084
323 K, 1056 kPa, x2 = 0.503	0.002294
323 K, 1467 kPa, x2 = 0.685	0.001632
323 K, 1794 kPa, x2 = 0.731	0.001322
323 K, 3554 kPa, x2 = 0.873	0.000596
323.01 K, 1433 kPa, x2 = 0.631	0.001643
327.97 K, 3638 kPa, x2 = 0.873	0.000596
327.98 K, 652 kPa, x2 = 0.117	0.003801
327.98 K, 1076 kPa, x2 = 0.503	0.002295
327.98 K, 1830 kPa, x2 = 0.731	0.001323
327.99 K, 664 kPa, x2 = 0.25	0.003757
327.99 K, 806 kPa, x2 = 0.389	0.003085
327.99 K, 1496 kPa, x2 = 0.685	0.001632
328 K, 1461 kPa, x2 = 0.631	0.001643
332.96 K, 3723 kPa, x2 = 0.873	0.000596
332.97 K, 664 kPa, x2 = 0.117	0.003801
332.97 K, 820 kPa, x2 = 0.389	0.003086
332.97 K, 1096 kPa, x2 = 0.503	0.002295
332.97 K, 1524 kPa, x2 = 0.685	0.001632
332.97 K, 1866 kPa, x2 = 0.731	0.001323
332.98 K, 676 kPa, x2 = 0.25	0.003758
332.98 K, 1489 kPa, x2 = 0.631	0.001644
337.94 K, 3807 kPa, x2 = 0.873	0.000596
337.95 K, 835 kPa, x2 = 0.389	0.003086
337.95 K, 1116 kPa, x2 = 0.503	0.002296
337.96 K, 677 kPa, x2 = 0.117	0.003802
337.96 K, 688 kPa, x2 = 0.25	0.003758
337.96 K, 1553 kPa, x2 = 0.685	0.001633
337.96 K, 1901 kPa, x2 = 0.731	0.001323
337.97 K, 1517 kPa, x2 = 0.631	0.001644
342.93 K, 3890 kPa, x2 = 0.873	0.000596
342.94 K, 850 kPa, x2 = 0.389	0.003087
342.94 K, 1136 kPa, x2 = 0.503	0.002296
342.94 K, 1580 kPa, x2 = 0.685	0.001633
342.94 K, 1936 kPa, x2 = 0.731	0.001324
342.95 K, 689 kPa, x2 = 0.117	0.003803
342.95 K, 700 kPa, x2 = 0.25	0.003759
342.96 K, 1545 kPa, x2 = 0.631	0.001645
